The values that follow come from patent US7968097B2, “Identification of Hla-A2-presented T-cell epitopes derived from the oncofoetal antigen-immature laminin receptor protein and uses thereof” (Immatics Biotechnologies GmbH, priority 2005, dated 2011).

Entries after “also recorded” stand apart in the source; their conditions may differ.

For the assay, the system named is PBMC of HLA-A*02 positive healthy donors. Put plainly: IFN-γ ELISPOT, healthy donors. To be noted: peripheral blood samples of healthy donors, IFN-γ ELISPOT.

Protocol: To determine the frequency of OFA/iLR peptide-specific T cells in patients, ELISPOT-assays were performed using the Interferon-γ-ELISPOT-Kit (Becton Dickinson, Heidelberg, Germany) according to manufacturer's instructions.
Prior to analysis, T cells from patients and healthy donors had been kept in culture for seven days in the presence of Interleukin-2 (IL microgram/10^6 PBMC/milliliter).

“LLAARAIVAI (listed as Homo sapiens) [ILR1]”: the “CTL / spontaneous T cell responses against peptide in healthy individuals” value was “no spontaneous T cell responses; also recorded: low numbers of CTL”.

“ALCNTDSPL (listed as Homo sapiens) [ILR2]”: the “CTL / spontaneous T cell responses against peptide in healthy individuals” value is recorded as “no spontaneous T cell responses; also recorded: low numbers of CTL”.
